US20120316203A1, “Compositions and Methods for Inhibition of Cancers” (THE OHIO STATE UNIVERSITY RESEARCH FOUNDATION, priority 2009, published 2012)
Entries after “also recorded” stand apart in the source; their conditions may differ.

Assays:
[1] = test system: A2780, A2780R, MCF-7, HCT-116, PC-3, HepG2, A549, and SCC4 human cancer cell lines; experiment: Cytotoxicity of DAPs to cancer cells (MTT); format: cell-based; details: 10 μM, 24 h
Protocol: (§1) Cell viability was determined by a colorimetric assay using MTT. In the mitochondria of living cells, yellow MTT undergoes a reductive conversion to formazan, giving a purple color. Cells, grown to […] confluence in 75-mm flasks, were trypsinized, counted, seeded in 96-well plates with an average population of 7000 cells/well, incubated overnight, and then treated with the DAPs (H-4073, HO-3867, H4318, or HO-4200; […]) for 24 h. All experiments were done using eight replicates and repeated at least three times. Cell viability was expressed as the percentage of MIT viability of untreated cells.

[2] = test system: hOSE cells, HSMC, and HAEC; experiment: Cytotoxicity of DAPs to noncancerous cells (MTT); format: cell-based, human
Protocol: as §1

[3] = Superoxide radical-scavenging by EPR (xanthine/xanthine oxidase, DEPMPO competition); details: 100 μM compound versus 1 mM DEPMPO
Protocol: Electron paramagnetic resonance (EPR) spectroscopy was used to quantitatively determine the relative superoxide-scavenging ability of the DAPs in comparison with DEPMPO, a known superoxide scavenger. Superoxide radicals were generated using an aerated solution of PBS (pH 7.4) containing xanthine (0.2 mM), xanthine oxidase (0.02 U/ml), and diethylenetriamine pentaacetic acid (0.1 mM). The superoxide radicals (O2^−) generated by the xanhine-xanthine oxidase reaction were reacted with DEPMPO (1 mM) to form a paramagnetic adduct (DEPMPO-OOH), which was detected using X-band (9.8 GHz) EPR spectroscopy. In separate experimental groups, […], or SOD (500 U/ml) was added to the reaction mixture. […] The generation of the DEPMPO-OOH adduct was measured at 10 min after initiation of the reaction.
Both N-hydroxypyrroline and nitroxide have antioxidant properties including SOD- and catalase-mimetic activity. Therefore, we determined the superoxide radical-scavenging ability of DAPs using a competitive reaction in the presence of DEPMPO. Superoxide radicals were generated using an aerobic solution of xanthine and xanthine oxidase and detected as DEPMPO-OOH adduct by EPR spectroscopy. The DAP compounds (100 μM) were used to compete with 1 mM DEPMPO for the superoxide ions. SOD (4.2 μM) was used as a positive control.

A2780 cells [4] = experiment: Intracellular ROS by DCF fluorescence, A2780; format: cell-based, human; details: 5 or 10 μM, 12 h
Protocol: (§2) The ROS levels in cells treated with DAPs were determined using H2DCF-DA, a membrane-permeative fluorogenic probe. The acetate and acetoxymethyl ester groups of this probe are enzymatically cleaved inside living cells. The probe can then be oxidized by intracellular oxidants (ROS) to give a product, DCF, which emits a strong, green fluorescence (λex=504 nm; λem=529 nm). The fluorescence intensity is proportional to the level of cellular oxidants. Cells, grown to 80% confluence on 6-mm glass coverslips, were treated with 10 pM H-4073, HO-3867, H-4318, or HO-4200 for 12 h, followed by incubation with H2DCF-DA. The cells were further incubated in the dark for 20 min and washed with protein-free medium, and then fluorescence images were immediately captured with a Nikon Eclipse TE2000-U camera system using excitation/emission at 495/520 nm. The captured images were then analyzed using MetaMorph image analysis software.

HSMC = experiment: Intracellular ROS by DCF fluorescence, HSMC; format: cell-based, human; details: 10 μM, 12 h
Protocol: as §2, with “Cells, grown to 80% confluence on 6-mm glass coverslips, were treated with 10 pM H-4073, HO-3867, H-4318, or HO-4200 for 12 h, followed by incubation with H2DCF-DA.” left out

[5] = test system: A2780 and other cancer cells; experiment: Metabolic conversion to nitroxide in cancer cells (EPR); format: in vitro ADME, human; details: 37° C., EPR
Description: The N-hydroxypyrroline (—NOH) moiety is capable of undergoing a reversible one-electron oxidation to its nitroxide form (—NO; FIG. 9A), which is paramagnetic and detectable by EPR spectroscopy.

A2780 and HSMC cells = experiment: Viability of cells exposed to stand-alone N-hydroxypyrroline or nitroxide (MTT); format: cell-based, human; details: 24 h
Protocol: as §1
To determine the role of the N-hydroxypyrroline function in the cytotoxicity, we additionally evaluated the effects of 3-CPH (a stand-alone analog of N-hydroxypyrroline) and 3-CP (a nitroxide version 3-CPH) on A27180 and HSMC cells. […] Overall the viability results implicate the diarylidenyl piperidone group in inducing cytotoxicity and the N-hydroxypyrroline group in protecting noncancerous cells.

A2780 cells [6] = experiment: Cell viability by MTT assay, A2780 cells; format: cell-based, human; details: 24 hours, dose series
Protocol: (§3) Cell viability was determined by a colorimetric assay using MTT. In the mitochondria of living cells, yellow MTT undergoes a reductive conversion to formazan, producing a purple color. Cells, grown to […] confluence in 75-mm flasks, were trypsinized, counted, seeded in 96-well plates with an average population of 7,000 cells per well, incubated overnight, and then treated with curcumin, H-4073, or HO-3867 for 24 hours. All experiments were done using eight replicates and, repeated at least thrice.

[7] = compared with cisplatin and curcumin; cited from earlier work
A2780 cells [8] = experiment: Cell proliferation by clonogenic assay; format: cell-based, human; details: 24 hours treatment, 7 days growth
Protocol: Cell survival was assessed by clonogenic assay. Cells at […] confluence were trypsinized, rinsed, seeded onto 60-mm dishes (5×10^4 cells per dish), grown for 24 hours at 37° C., and treated afterward with H-4073 or HO-3867 for 24 hours. Nontreated cells served as controls. After treatment, the cells were washed twice with PBS, trypsinized, counted, and plated in 60-mm dishes in triplicate and incubated for an additional 7 days. The colonies were then stained with crystal violet (in ethyl alcohol) and counted using an automated colony counter (ColCount, Oxford Optronix). Each experiment was repeated at least five times.

[9] = test system: A2780R, PA-1, SKOV3, OV4, and OVCAR3 human ovarian cancer cell lines; experiment: Cell viability by MTT assay, other ovarian cancer cell lines; format: cell-based; details: 10 μmol/L; 24 h
Protocol: as §3

hOSE cells = experiment: Cell viability by MTT assay, noncancerous hOSE control cells; format: cell-based, human; details: 20 μmol/L
Protocol: as §3

Compound: CC1(C)C=C(CN2C/C(=C\c3ccc(C(F)(F)F)cc3)C(=O)/C(=C/c3ccc(C(F)(F)F)cc3)C2)C(C)(C)N1O [HO-4200, 1-[(1-oxyl-2,2,5,5-tetramethyl-2,5-dihydro-1H-pyrrol-3-yl)-methyl]-(3E,5E)-3,5-bis(4-trifluoromethylbenzylidene)piperidin-4-one]
- cell viability of human cancer cell lines [1]: substantial loss of cell viability
- cell viability of noncancerous (healthy) human cell lines ([2]; 10 NM, 24-h incubation): significantly less toxic
- diminution of the DEPMPO-OOH concentration [3]: −50%
- intracellular ROS generation (DCF fluorescence) in A2780 cells (A2780 cells [4]): induced significant ROS generation
- amounts of ROS in HSMC compared to A2780 cells (HSMC): significantly lower amounts of ROS
- intracellular ROS generation (DCF fluorescence) in HSMC (HSMC): induced significant ROS generation

Compound: O=C1/C(=C/c2ccc(C(F)(F)F)cc2)CNC/C1=C\c1ccc(C(F)(F)F)cc1 [H-4318, (3E,5E)-3,5-bis(4-trifluoromethylbenzylidene)piperidin-4-one]
- cell viability of human cancer cell lines [1]: substantial loss of cell viability; also recorded: higher toxicity compared to HO-3867 or HO-4200
- EPR spectrum (nitroxide signal) after incubation with A2780 cells [5]: did not show any EPR signal
- effect on the superoxide adduct level [3]: did not show any significant effect
- intracellular ROS generation (DCF fluorescence) in A2780 cells (A2780 cells [4]): induced significant ROS generation
- intracellular ROS generation (DCF fluorescence) in HSMC (HSMC): induced significant ROS generation

Compound: CC1(C)CC(C(N)=O)C(C)(C)N1[O] (stereo not shown) [3-CP, 3-carbamoyl proxyl]
- cell viability of A2780 and HSMC cells (A2780 and HSMC cells): did not show any significant effect

Compound: COc1cc(/C=C/C(=O)CC(=O)/C=C/c2ccc(O)c(OC)c2)ccc1O [curcumin, Curcumin, reference compound]
- cytotoxicity, viability of A2780 cells (A2780 cells [6]): dose-dependent cytotoxicity

Compound: CC1(C)CC(C(N)=O)C(C)(C)N1O (stereo not shown) [3-CPH, N-hydroxy-3-carbamoyl proxyl]
- cell viability of A2780 and HSMC cells (A2780 and HSMC cells): did not show any significant effect

Compound: O=C1/C(=C/c2ccccc2F)CNC/C1=C\c1ccccc1F [DAP-F(o)]
- IC50 [7]: lower than both cisplatin and curcumin

Compound: O=C1/C(=C/c2ccc(F)cc2)CNC/C1=C\c1ccc(F)cc1 [H-4073, (3E,5E)-3,5-Bis(4-fluorobenzylidene)piperidin-4-one]
- cytotoxicity, viability of A2780 cells (A2780 cells [6]): significantly higher toxicity when compared with curcumin
- number of colonies (colony-forming ability) (A2780 cells [8]): dose-dependent reduction in the number of colonies
- cytotoxicity in other human ovarian cancer cell lines [9]: equally and significantly toxic
- cytotoxicity to hOSE cells (hOSE cells): significant cytotoxicity
- cell viability of human cancer cell lines [1]: substantial loss of cell viability; also recorded: higher toxicity compared to HO-3867 or HO-4200
- viability of hOSE cells ([2]; same dose for both compounds): significantly reduced
- EPR spectrum (nitroxide signal) after incubation with A2780 cells [5]: did not show any EPR signal
- effect on the superoxide adduct level [3]: did not show any significant effect
- intracellular ROS generation (DCF fluorescence) in A2780 cells (A2780 cells [4]): induced significant ROS generation
- intracellular ROS generation (DCF fluorescence) in HSMC (HSMC): induced significant ROS generation
